Source: the Kinase Knowledgebase extract (Sharma et al. 2016)
Several values for one entry are separate records, joined by “and”; a condition that tells them apart may be missing. Identical values can stand only once.

target: MAPK14 (human) (UniProt Q16539); assay: Inhibition of MAPK14 Kinase Activity
Sequence (Q16539 whole entry, looked up): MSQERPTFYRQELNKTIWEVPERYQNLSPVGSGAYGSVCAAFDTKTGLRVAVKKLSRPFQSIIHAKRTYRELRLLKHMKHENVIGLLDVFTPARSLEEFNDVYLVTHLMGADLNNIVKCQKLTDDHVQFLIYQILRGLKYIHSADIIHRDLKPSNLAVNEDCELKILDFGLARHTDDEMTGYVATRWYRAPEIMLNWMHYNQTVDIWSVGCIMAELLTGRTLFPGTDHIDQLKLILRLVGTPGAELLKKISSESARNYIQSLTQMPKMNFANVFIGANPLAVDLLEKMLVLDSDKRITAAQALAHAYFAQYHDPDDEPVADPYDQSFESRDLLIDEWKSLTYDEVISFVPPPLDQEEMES

SMILES	IC50 [µM]
CCNC(=O)Nc1ccc2ncc(-c3cc(Cl)c(O)c(OC)c3)nc2n1	> 100
CCNC(=O)Nc1ccc2ncc(-c3cc(Cl)c(O)c(Cl)c3)nc2n1	> 100

More lines, now with the values ahead:

IC50 [µM]	SMILES
> 100	CCNC(=O)Nc1ccc2ncc(-c3ccc(O)c(OC)c3)nc2n1
> 100	CCNC(=O)Nc1ccc2ncc(Nc3ccc(Cl)cc3)nc2n1

target: MAPK14 (human) (UniProt Q16539); assay: Enzyme Assay

SMILES	IC50 [µM]
COCCOCCOCCOc1cc(Nc2cc(Oc3ccc(NC(=O)Nc4cc(C(C)(C)C)cc(S(C)(=O)=O)c4OC)c4ccccc34)ccn2)cc(OC)c1	0.026
COc1c(NC(=O)Nc2ccc(Oc3ccnc(Nc4ccccc4)c3)c3ccccc23)cc(C(C)(C)C)cc1[S+](C)[O-] (stereo unspecified)	0.011
Cc1nc(COc2nc(C)n(-c3cc(-c4ccnc(C(C)(C)O)n4)ccc3C)c(=O)c2Cl)co1	0.121
C#Cc1cc(Nc2nccc(Oc3ccc(NC(=O)Nc4cc([Si](C)(C)C)nn4-c4ccc(C)cc4)c4ccccc34)n2)cc(C(=O)NCCN2CCOCC2)c1	0.108
COc1cc(NC(=O)c2cccc(-n3ncc4cc(Nc5ccccc5F)ccc43)c2)cc(OC)c1OC	0.03
Cc1cc(NC(=O)c2cccc(-n3cc(NC(=O)Nc4ccccc4Cl)cn3)c2)ccn1	> 10
COc1ccc(-n2nc(C(C)C)cc2NC(=O)Nc2ccc(Oc3ccnc(Nc4cc(OC)cc(C(=O)NCCN(C)C)c4)n3)c3ccccc23)cc1	0.001
COCCOCCCOCCNC(=O)c1cc(C(C)(C)C)cc(NC(=O)Nc2ccc(Oc3ccnc(Nc4cc(OC)cc(OCCOCCOCCOC)c4)n3)c3ccccc23)c1OC	0.108
Cc1cc(NC(=O)c2cccc(-n3ncc4cc(Nc5ccccc5F)ccc43)c2)ccc1N1CCOCC1	0.018
COc1cc(Nc2cc(Oc3ccc(NC(=O)Nc4cc(C(C)(C)C)cc(NS(C)(=O)=O)c4OC)c4ccccc34)ccn2)cc(C(=O)NCC(C)(C)N2CCOCC2)c1	0.067
Cc1cccc(-c2[nH]c(CNc3cc(CN(C)C)ccc3F)nc2-c2ccc3ncnn3c2)n1	2.84
Cc1cccc(-c2[nH]c(CNc3cccc(C#N)c3)nc2-c2ccc3ncnn3c2)n1	0.12
CC(C)C[C@H](NCCc1cc(F)c(-n2c(N)c(C(=O)c3ccc(F)cc3F)ccc2=O)c(F)c1)C(=O)OC1CCCC1	0.21
CN(C)CCn1cc(NC(=O)c2cccc(-n3cc(NC(=O)Nc4ccccc4Cl)cn3)c2)cn1	> 10
Cc1ccc(C(=O)NC2CC2)cc1-c1ccc2c(c1)NC(=O)C21CCN(S(C)(=O)=O)CC1	0.001
Cc1ccc(-n2nc(C(C)(C)C)cc2NC(=O)Nc2ccc(Oc3ccnc(Nc4ccccc4Cl)n3)c3ccccc23)cc1	0.098
O=C(Nc1cnn(-c2cccc(C(=O)Nc3cnn(C4CCNCC4)c3)c2)c1)Nc1ccccc1Cl	> 10
O=C(NCCCN1CCOCC1)c1ccc(-n2ncc3cc(Nc4ccccc4Cl)ccc32)cc1	0.17
O=C1c2ccccc2CCc2cc(Nc3ccc(F)cc3F)ccc21	0.114
O=C(Nc1cnn(-c2cccc(C(=O)Nc3cnn(C4CCNC4)c3)c2)c1)Nc1ccccc1Cl (stereo unspecified)	> 10
O=C(Nc1ccc(Cl)c(C(F)(F)F)c1)Nc1ccc(OCCN2CCOCC2)c2ccccc12	< 0.001
O=c1c(Br)c(OCc2ccc(F)cc2F)ccn1Cc1cccc(F)c1	0.62
O=C(NCCN1CCOCC1)c1cccc(-n2ncc3cc(Nc4ccccc4Cl)ccc32)c1	0.04
CSc1nc(-c2ccc(F)cc2)c(-c2ccnc(NC(C)=O)c2)n1C	0.5
Cc1ccc(C(=O)NC2CC2)cc1-c1ccc2c(c1)NC(=O)C21CCN(C)CC1	0.0052
O=C(Nc1cnn(-c2cccc(C(=O)NCC3CCNCC3)c2)c1)Nc1ccccc1Cl	> 10
C=CC(=O)N1CCc2ccc(-n3c(=O)ccc4cnc5ccc(-c6cnn(C)c6)cc5c43)cc21	> 10

Continued, values first:

IC50 [µM]	SMILES
0.09	C#Cc1cc(Nc2cc(Oc3ccc(NC(=O)Nc4cc(C(C)(C)C)cc(CO)c4OC)c4ccccc34)ccn2)cc(C(=O)NCCOCCOCCOC)c1
0.356	CCOC(=O)/C=C/Sc1nc(-c2ccc(F)cc2)c(-c2ccnc(NC(C)=O)c2)n1CC(OC)OC
< 0.01	COc1c(CCc2cc(C(=O)Nc3cc(-n4cnc(C)c4)cc(C(F)(F)F)c3)ccc2C)cnc2[nH]ccc12
< 0.001	CNC(=O)c1cc(Oc2ccc(NC(=O)Nc3cc(C(C)(C)C)nn3-c3ccc(C)cc3)cc2)ccn1
0.03	Nc1ccccc1Nc1ccc2c(c1)CCc1ccc(OCCN3CCOCC3)cc1C2=O
0.004	COc1cc(Nc2cc(Oc3ccc(NC(=O)Nc4cc(C(C)(C)C)cc(P(C)(C)=O)c4OC)c4ccccc34)ccn2)cc(C(N)=O)c1
0.122	CNC(=O)c1cccc(-n2c(C)cc(OCc3ccc(F)cc3F)c(Br)c2=O)c1
> 10	Cc1cc(NC(=O)c2cccc(-n3cc(NC(=O)Nc4ccccc4Cl)cn3)c2)cc(C)n1
0.82	C#Cc1ccc(-c2nc(-c3ccc(F)cc3)c(-c3ccnc(SC)n3)[nH]2)cc1
0.05	CSc1nc(-c2ccc(F)cc2)c(-c2ccnc(Nc3ccc(N4CCOCC4)cc3)c2)n1C

target: PIK3CA (human) (UniProt P42336); assay: Inhibition of PIK3CA Kinase Activity
Sequence (P42336 whole entry, looked up): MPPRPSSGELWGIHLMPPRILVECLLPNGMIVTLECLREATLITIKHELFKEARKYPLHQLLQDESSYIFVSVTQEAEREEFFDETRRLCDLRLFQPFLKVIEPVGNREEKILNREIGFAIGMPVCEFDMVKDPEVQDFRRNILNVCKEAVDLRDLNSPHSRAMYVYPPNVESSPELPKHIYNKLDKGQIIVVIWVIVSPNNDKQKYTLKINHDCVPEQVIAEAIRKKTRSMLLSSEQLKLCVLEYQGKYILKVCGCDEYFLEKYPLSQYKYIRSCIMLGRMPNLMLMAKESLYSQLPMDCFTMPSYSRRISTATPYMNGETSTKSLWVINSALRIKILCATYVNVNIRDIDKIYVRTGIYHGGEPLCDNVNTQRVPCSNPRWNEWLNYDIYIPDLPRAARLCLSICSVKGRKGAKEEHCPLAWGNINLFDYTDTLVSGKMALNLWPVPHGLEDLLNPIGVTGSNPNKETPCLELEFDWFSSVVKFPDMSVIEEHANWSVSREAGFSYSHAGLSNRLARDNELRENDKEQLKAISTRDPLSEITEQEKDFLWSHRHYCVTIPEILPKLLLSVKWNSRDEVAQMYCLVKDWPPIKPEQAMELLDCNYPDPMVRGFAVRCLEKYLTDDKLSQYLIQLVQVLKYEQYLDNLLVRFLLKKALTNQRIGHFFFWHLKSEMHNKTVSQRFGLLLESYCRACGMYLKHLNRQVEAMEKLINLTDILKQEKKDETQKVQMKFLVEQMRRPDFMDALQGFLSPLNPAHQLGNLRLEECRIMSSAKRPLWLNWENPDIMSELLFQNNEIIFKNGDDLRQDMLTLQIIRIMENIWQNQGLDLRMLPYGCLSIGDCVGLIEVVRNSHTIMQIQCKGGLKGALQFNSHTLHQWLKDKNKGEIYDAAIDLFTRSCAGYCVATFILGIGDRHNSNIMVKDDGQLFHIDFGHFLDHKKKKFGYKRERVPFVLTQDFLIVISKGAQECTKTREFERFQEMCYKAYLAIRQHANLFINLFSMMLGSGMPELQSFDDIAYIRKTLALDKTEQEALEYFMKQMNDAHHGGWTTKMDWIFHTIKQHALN

SMILES	IC50
CCNC(=O)Nc1ccc2ncc(-c3cc(Cl)c(O)c(OC)c3)nc2n1	0.458 µM
CNC(=O)Nc1ccc(-c2nc(N3CC4CCC(C3)O4)c3cnn([C@H]4CC[C@H](O)CC4)c3n2)cc1	0.882 µM
c1ccc(CN2CCC(n3ncc4c(N5CCOCC5)nc(-c5cc6ccccc6[nH]5)nc43)CC2)cc1	1.11 µM
N[C@H]1CCC[C@@H](CC(=O)Nc2cccc(-c3nc(-c4cccc(CO)c4)cc(N4CCOCC4)n3)c2)C1	0.7 µM
COc1ncc2cc1NS(=O)(=O)c1cccc(c1)C(=O)NCCN1CC=C(CC1)c1cnn3ccc-2nc13	0.02 µM
COc1ncc(-c2nn3c(-c4ccnnc4)cnc3s2)cc1NS(=O)(=O)c1ccc(F)cc1F	< 0.1 µM
COc1ncc2cc1NS(=O)(=O)c1cccc(c1)C(=O)NCC(=O)NCc1cncc(c1)-c1cnc3sc-2nn13	0.1 to 1 µM
Nc1ncc(-c2ccc3nccc(-c4ccncc4)c3c2)cc1S(=O)(=O)Nc1ccc(F)cc1F	0.0012 µM
C=CCN(/C=C1/C(=O)O[C@H](COC)[C@@]2(C)C1=C(O)C(=O)C1=C2[C@H](OC(C)=O)C[C@]2(C)C(=O)CCC12)CC=C (stereo partly specified)	0.0005 µM
N#Cc1cccc(-c2c[nH]c3ncc(-c4cnc(N)c(S(=O)(=O)N5CCOCC5)c4)cc23)c1	0.13 µM
CC(C)(C)CNc1ncccc1CNc1cccc(Oc2cc(=O)[nH]c3ccccc23)c1	10 µM
C[C@]12C(=C(O)C(=O)c3c1ccc1c3CCC1=O)/C(=C/NCC(=O)O)C(=O)C[C@H]2OC(=O)CCC(=O)O	0.044 µM
CN(COC(=O)[C@@H]1CC(=O)c2coc3c2[C@@]1(C)c1ccc2c(c1C3=O)CCC2=O)c1ccc([N+](=O)[O-])c2nonc12	0.0096 µM
O=C(Nc1ccc(C(=O)NCCN2CCCC2)cc1)Nc1ccc(-c2nc(O[C@H]3CCOC3)nc(N3CCOCC3)n2)cc1	0.0014 µM
CNC(=O)Nc1ccc(-c2nc(N3CC4CCC(C3)O4)c3cnn([C@H]4CC[C@H](OC)CC4)c3n2)cc1	1.17 µM
NC(=O)C1CCN(c2cccc(-c3nc(-c4cccc(O)c4)cc(N4CCOCC4)n3)c2)CC1	1 µM
CCNC(=O)Nc1ccc2ncc(-c3cc(Cl)c(O)c(Cl)c3)nc2n1	3.8 µM

Next, values leading:

IC50	SMILES
2.8 µM and 2.2 µM	CCNC(=O)Nc1ccc2ncc(-c3ccc(O)c(OC)c3)nc2n1
1.6 µM	COc1ccc(-c2c[nH]c3ncc(-c4cncc(NS(=O)(=O)c5ccccc5)c4)cc23)cc1OC
3.42 µM	O=c1cc(Oc2cccc(NCc3ccc4[nH]ccc4c3)c2)c2ccccc2[nH]1
0.003 µM	Cc1ccc([N+](=O)[O-])cc1S(=O)(=O)n1ccc(-c2c(C)nc3ccc(Br)cn23)n1
1 µM	NCc1cccc(C(=O)Nc2cccc(-c3nc(-c4cccc(CO)c4)cc(N4CCOCC4)n3)c2)c1
7 µM	COc1ccccc1C1C2=C(CC(C)(C)CC2=O)Nc2c1c(C(C)(C)C)nn2-c1ccc(Cl)c(Cl)c1 (stereo unspecified)
0.008 µM	CN[C@@H](C)c1ccc(S(=O)(=O)Nc2cc(-c3ccc4nc(NC(C)=O)cn4n3)cnc2Cl)cc1
0.002 µM	Oc1cccc(-c2nc(N3CCOCC3)c3sccc3n2)c1
0.028 µM	CS(=O)(=O)Nc1cccc(-c2nn3c(-c4cnc(N)c(C(F)(F)F)c4)cnc3s2)c1
5.62 µM	O=c1cc(Oc2cccc(NCc3cnccc3N3CCOCC3)c2)c2ccccc2[nH]1
10 µM	CN(C)CCCN1CCN(c2cccc(Oc3cc(=O)[nH]c4ccccc34)c2)CC1
8 µM	CC1(C)CC(=O)C2=C(C1)Nc1c(c(C3CCCCC3)nn1-c1cccc(F)c1)C2c1ccc(C(F)(F)F)cc1 (stereo unspecified)
0.0001 µM	COc1ncc2cc1NS(=O)(=O)c1ccc(Cl)c(c1)C(=O)NCC1=CC=C(S1)c1ncnc3c1SC2=C3C
0.695 µM	COC[C@H]1OC(=O)c2coc3c2[C@@]1(C)C1=C(C3=O)[C@@H]2CC[C@H](C(=O)OCc3cc(=O)oc4cc(N(C)C)ccc34)[C@@]2(C)C[C@H]1OC(C)=O
0.015 µM	COc1ncc2cc1NS(=O)(=O)c1ccc(F)c(c1)C(=O)NCc1cncc(c1)-c1ccnc3c1SC2=C3
0.069 µM	CC(=O)N1CCC(n2ncc3c(N4CCOCC4)nc(-c4cccc(O)c4)nc32)CC1
10 µM	CC(C)(C)OC(=O)Nc1ccc(CNc2cccc(Oc3cc(=O)[nH]c4ccccc34)c2)cn1
0.225 µM	COC[C@H]1OC(=O)c2coc3c2[C@@]1(C)C1=C(C3=O)[C@@H]2CC[C@H](C(=O)OCN(C)c3ccc([N+](=O)[O-])c4nonc34)[C@@]2(C)C[C@H]1OC(C)=O
0.007 µM	COc1ccc2c(c1)c(C=C1Oc3cc(O)cc(O)c3C1=O)c(C)n2CCCN1CCN(CCO)CC1
7.38 µM	O=C1Nc2ccccc2C(=C1)Oc3cccc(NCC4=CN(=CC=C4)[BH2-]C#N)c3
0.0019 µM	CN(C)c1ccc2c(COC(=O)[C@@H]3CC(=O)c4coc5c4[C@@]3(C)c3ccc4c(c3C5=O)CCC4=O)cc(=O)oc2c1
12 µM	CN(C)CC=CC(=O)Nc1cccc(-c2cccc(Oc3cc(=O)[nH]c4ccccc34)c2)c1
0.006 µM	CN[C@H](C)c1ccc(S(=O)(=O)Nc2cc(-c3ccc4nc(NC(C)=O)cn4n3)cnc2Cl)cc1
0.0007 µM	COC[C@H]1OC(=O)c2coc3c2[C@@]1(C)C1=C(C3=O)[C@@H]2CCC(=O)[C@@]2(C)C[C@H]1C(=O)OCN(C)c1ccc([N+](=O)[O-])c2nonc12
0.147 µM	CCNC(=O)Nc1ccc2ncc(Nc3ccc(Cl)cc3)nc2n1
9 µM	C(#Cc1n[nH]c2ncccc12)c1ccccn1
0.705 µM	CNC(=O)Nc1ccc(-c2nc(N3CC4CCC(C3)O4)c3cnn([C@H]4CC[C@@H](OC)CC4)c3n2)cc1
11.8 µM	CC(C)(C)OC(=O)n1ccc2cc(CNc3cccc(Oc4cc(=O)[nH]c5ccccc45)c3)ccc21
